# Data reported in PubChem BioAssay (NCI).
#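 Where inhibition never reached the appropriate level, the endpoint shown equals the highest concentration tested. Otherwise, values were interpolated linearly from a five-concentration, 48-hour dose response in 96-well plates. GI50 is the concentration that inhibits growth by half. TGI marks complete inhibition of growth.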
# Assays:
# Experiment in all cases: NCI tumour cell line growth inhibition, 48 h
# IGROV1 ovarian = tested on: IGROV1 ovarian
# KM12 colon = tested on: KM12 colon
# OVCAR-5 ovarian = tested on: OVCAR-5 ovarian
# HOP-62 NSCLC = tested on: HOP-62 NSCLC
# SK-MEL-2 melanoma = tested on: SK-MEL-2 melanoma
# RPMI-8226 leukemia = tested on: RPMI-8226 leukemia
# SNB-75 CNS = tested on: SNB-75 CNS
# DU-145 prostate = tested on: DU-145 prostate
# SF-268 CNS = tested on: SF-268 CNS
# UACC-257 melanoma = tested on: UACC-257 melanoma
# PC-3 prostate = tested on: PC-3 prostate
# 786-0 renal = tested on: 786-0 renal
# SW-620 colon = tested on: SW-620 colon
# MCF7 breast = tested on: MCF7 breast
# HCC-2998 colon = tested on: HCC-2998 colon
# SF-295 CNS = tested on: SF-295 CNS
# MDA-MB-231 breast = tested on: MDA-MB-231 breast
# NCI-H522 lung = tested on: NCI-H522 lung
# HOP-92 NSCLC = tested on: HOP-92 NSCLC
# MALME-3M melanoma = tested on: MALME-3M melanoma
# OVCAR-8 ovarian = tested on: OVCAR-8 ovarian
# CAKI-1 renal = tested on: CAKI-1 renal
# COLO 205 colon = tested on: COLO 205 colon
# LOX IMVI melanoma = tested on: LOX IMVI melanoma
# NCI/ADR-RES ovarian = tested on: NCI/ADR-RES ovarian
# SN12C renal = tested on: SN12C renal
# MDA-MB-435 = tested on: MDA-MB-435
# HS 578T breast = tested on: HS 578T breast
# NCI-H226 lung = tested on: NCI-H226 lung
# OVCAR-3 ovarian = tested on: OVCAR-3 ovarian
# U251 CNS = tested on: U251 CNS
# HCT-116 colon = tested on: HCT-116 colon
# T-47D breast = tested on: T-47D breast
# SK-OV-3 ovarian = tested on: SK-OV-3 ovarian
# HCT-15 colon = tested on: HCT-15 colon
# SK-MEL-5 melanoma = tested on: SK-MEL-5 melanoma
# SF-539 CNS = tested on: SF-539 CNS
# SNB-19 CNS = tested on: SNB-19 CNS
# BT-549 breast = tested on: BT-549 breast
# UACC-62 melanoma = tested on: UACC-62 melanoma
# M14 melanoma = tested on: M14 melanoma
# A549 NSCLC = tested on: A549 NSCLC
# OVCAR-4 ovarian = tested on: OVCAR-4 ovarian
# UO-31 renal = tested on: UO-31 renal
# ACHN renal = tested on: ACHN renal
# TK-10 renal = tested on: TK-10 renal
# EKVX NSCLC = tested on: EKVX NSCLC
# A498 renal = tested on: A498 renal
# HT29 colon = tested on: HT29 colon
# NCI-H460 lung = tested on: NCI-H460 lung
# CCRF-CEM leukemia = tested on: CCRF-CEM leukemia
# SK-MEL-28 melanoma = tested on: SK-MEL-28 melanoma
# RXF 393 renal = tested on: RXF 393 renal
smiles,measurement,setting,value
OC1CCN(CCCOc2c3ccccc3nc3c2oc2ccccc23)CC1,GI50,IGROV1 ovarian,2.61 µM
same,TGI,IGROV1 ovarian,11.3 µM
same,GI50,KM12 colon,2.99 µM
same,TGI,KM12 colon,49.6 µM
same,GI50,OVCAR-5 ovarian,2.47 µM
same,TGI,OVCAR-5 ovarian,9.49 µM
same,GI50,HOP-62 NSCLC,2.32 µM
same,TGI,HOP-62 NSCLC,11.9 µM
same,GI50,SK-MEL-2 melanoma,1.93 µM
same,TGI,SK-MEL-2 melanoma,3.59 µM
same,GI50,RPMI-8226 leukemia,2.47 µM
same,TGI,RPMI-8226 leukemia,7.46 µM
same,GI50,SNB-75 CNS,1.86 µM
same,TGI,SNB-75 CNS,4.3 µM
same,GI50,DU-145 prostate,3.66 µM
same,TGI,DU-145 prostate,23.1 µM
same,GI50,SF-268 CNS,2.53 µM
same,TGI,SF-268 CNS,14.8 µM
same,GI50,UACC-257 melanoma,1.83 µM
same,TGI,UACC-257 melanoma,3.72 µM
same,GI50,PC-3 prostate,2.12 µM
same,TGI,PC-3 prostate,7.93 µM
same,GI50,786-0 renal,2.3 µM
same,TGI,786-0 renal,18 µM
same,GI50,SW-620 colon,0.825 µM
same,TGI,SW-620 colon,11.9 µM
same,GI50,MCF7 breast,2.31 µM
same,TGI,MCF7 breast,10.1 µM
same,GI50,HCC-2998 colon,1.46 µM
same,TGI,HCC-2998 colon,3.76 µM
same,GI50,SF-295 CNS,2.39 µM
same,TGI,SF-295 CNS,10.5 µM
same,GI50,MDA-MB-231 breast,2.37 µM
same,TGI,MDA-MB-231 breast,11.1 µM
same,GI50,NCI-H522 lung,1.57 µM
same,TGI,NCI-H522 lung,4.38 µM
same,GI50,HOP-92 NSCLC,0.853 µM
same,TGI,HOP-92 NSCLC,4.28 µM
same,GI50,MALME-3M melanoma,1.86 µM
same,TGI,MALME-3M melanoma,3.95 µM
same,GI50,OVCAR-8 ovarian,1.81 µM
same,TGI,OVCAR-8 ovarian,6.71 µM
same,GI50,CAKI-1 renal,1.67 µM
same,TGI,CAKI-1 renal,12.9 µM
same,GI50,COLO 205 colon,1.06 µM
same,TGI,COLO 205 colon,2.83 µM
same,GI50,LOX IMVI melanoma,0.626 µM
same,TGI,LOX IMVI melanoma,3.51 µM
same,GI50,NCI/ADR-RES ovarian,1.03 µM
same,TGI,NCI/ADR-RES ovarian,8.1 µM
same,GI50,SN12C renal,1.7 µM
same,TGI,SN12C renal,13.5 µM
same,GI50,MDA-MB-435,2.31 µM
same,TGI,MDA-MB-435,6.79 µM
same,GI50,HS 578T breast,2.38 µM
same,TGI,HS 578T breast,8.83 µM
same,GI50,NCI-H226 lung,1.9 µM
same,TGI,NCI-H226 lung,4.74 µM
same,GI50,OVCAR-3 ovarian,3.61 µM
same,TGI,OVCAR-3 ovarian,24.9 µM
same,GI50,U251 CNS,2.14 µM
same,TGI,U251 CNS,12.2 µM
same,GI50,HCT-116 colon,0.505 µM
same,TGI,HCT-116 colon,12.3 µM
same,GI50,T-47D breast,2.51 µM
same,TGI,T-47D breast,7.27 µM
same,GI50,SK-OV-3 ovarian,2.56 µM
same,TGI,SK-OV-3 ovarian,8.7 µM
same,GI50,HCT-15 colon,2.02 µM
same,TGI,HCT-15 colon,9.73 µM
same,GI50,SK-MEL-5 melanoma,1.77 µM
same,TGI,SK-MEL-5 melanoma,3.2 µM
same,GI50,SF-539 CNS,2.02 µM
same,TGI,SF-539 CNS,6.4 µM
same,GI50,SNB-19 CNS,2.36 µM
same,TGI,SNB-19 CNS,14.8 µM
same,GI50,BT-549 breast,2.8 µM
same,TGI,BT-549 breast,8.88 µM
same,GI50,UACC-62 melanoma,1.86 µM
same,TGI,UACC-62 melanoma,4.43 µM
same,GI50,M14 melanoma,2.39 µM
same,TGI,M14 melanoma,7.89 µM
same,GI50,A549 NSCLC,2.54 µM
same,TGI,A549 NSCLC,16.4 µM
same,GI50,OVCAR-4 ovarian,2.14 µM
same,TGI,OVCAR-4 ovarian,8.63 µM
same,GI50,UO-31 renal,1.18 µM
same,TGI,UO-31 renal,3.13 µM
same,GI50,ACHN renal,0.8 µM
same,TGI,ACHN renal,25.2 µM
same,GI50,TK-10 renal,2.41 µM
same,TGI,TK-10 renal,7.73 µM
same,GI50,EKVX NSCLC,2.79 µM
same,TGI,EKVX NSCLC,12.9 µM
same,GI50,A498 renal,1.73 µM
same,TGI,A498 renal,3.38 µM
same,GI50,HT29 colon,1.1 µM
same,TGI,HT29 colon,3.65 µM
same,GI50,NCI-H460 lung,1.59 µM
same,TGI,NCI-H460 lung,11.1 µM
same,GI50,CCRF-CEM leukemia,2.12 µM
same,TGI,CCRF-CEM leukemia,16.3 µM
same,GI50,SK-MEL-28 melanoma,1.93 µM
same,TGI,SK-MEL-28 melanoma,3.81 µM
same,GI50,RXF 393 renal,1.32 µM
same,TGI,RXF 393 renal,3.64 µM
